These results are taken from patent US20260138957A1, “UREA-LINKED 2-AMINOIMIDAZOLE DIMER POTENTIATORS” (UNIVERSITY OF NOTRE DAME DU LAC, priority 2022, published 2026).

In series [1] the test system is AB5075. The series can be described thus: Potentiation of azithromycin, erythromycin and rifampin against AB5075. The following applies: AB5075, adjuvant at ≤30% their MIC. It is filed as cell-based, Acinetobacter baumannii.
Series [2] deals with A. baumannii strain 5075 (AB5075). The series can be described thus: Standalone MIC against AB5075 (compound or antibiotic alone). To be noted: compound alone; for MIC against AB5075 (inherent anti-bacterial activity): newly synthesized material; for MIC: Acinetobacter baumannii, AB5075. The arrangement: MIC against AB5075 (inherent anti-bacterial activity): unit not given beside the values. It is filed as cell-based, Acinetobacter baumannii. The source says:
Dimers were first analyzed for standalone toxicity against AB5075.

Series [3] concerns AB 5075. In words: Colistin MIC in absence or presence of compounds against AB 5075. Type of series: cell-based, Acinetobacter baumannii. The following applies: adjuvant at 30 μM, AB5075. The text has this: However, dropping LOS comes with fitness costs such as reduced growth rates, lower virulence, and increased sensitivity towards certain antibiotics.
Series [4] deals with A. baumannii strain 5075 (AB5075). The series can be described thus: Clarithromycin potentiation against AB5075 (CLR MIC in presence of adjuvant). It is filed as cell-based, Acinetobacter baumannii. The following applies: for Clarithromycin (CLR) MIC / Fold Reduction of CLR MIC: AB5075; for CLR potentiation activity (in words): AB5075, 30 μM.
Series [5] can be described thus: Microsomal (metabolic) stability. To be noted: 60 minutes. Type of series: in vitro ADME.
The nature of series [6]: Plasma stability. The following applies: 4 hours. Type of series: in vitro ADME.

Structures are written as SMILES.

Take `Nc1nc(-c2ccc(NC(=O)Nc3ccc(-c4c[nH]c(N)n4)cc3)cc2)c[nH]1` [Compound 3]: the “activity in combination with AZM, ERM and RIF (in words)” value (from here on “activity in combination with AZM”) in series [1] is on record as “significant activity”. Also, the “MIC against AB5075 (inherent anti-bacterial activity)” value (“MIC against AB5075” for short) in series [2] is given as over 200. In series [3], the “Colistin MIC” value was found to be 2 µg/mL. Besides, the “Clarithromycin (CLR) MIC” value worked out at 8 µg/mL in series [4] (adjuvant at 7.5 μM), 4 µg/mL in series [4] (adjuvant at 10 μM), 0.5 µg/mL in series [4] (adjuvant at 20 μM) and 0.125 µg/mL in series [4] (adjuvant at 30 μM). The “Fold Reduction of CLR MIC” value in series [4] (adjuvant at 7.5 μM) stood at 4 fold; in series [4] (adjuvant at 10 μM) it was 8 fold; in series [4] (adjuvant at 20 μM) it was 64 fold; in series [4] (adjuvant at 30 μM), 256 fold.
By MIC is commonly meant the smallest concentration in the dilution series that meets the test's criterion for growth inhibition. With `Nc1nc(-c2ccc(NC(=O)Nc3cccc(-c4c[nH]c(N)n4)c3)cc2)c[nH]1` [Compound 4], the “activity in combination with AZM” value in series [1] is recorded as “significant activity”. The molecule further showed an MIC in series [2] (value in brackets) of over 447 µg/mL. In series [2], the “MIC against AB5075” value is over 200. The “Colistin MIC” value in series [3] was determined as 0.25 µg/mL. For the same molecule, the results for the “Clarithromycin (CLR) MIC” value in series [4] (adjuvant at 10 μM), in series [4] (adjuvant at 20 μM) and in series [4] (adjuvant at 30 μM) were 16 µg/mL, 1 µg/mL and 0.125 µg/mL, respectively. Besides, the “Fold Reduction of CLR MIC” value stood at 2 fold in series [4] (adjuvant at 10 μM), 32 fold in series [4] (adjuvant at 20 μM) and 256 fold in series [4] (adjuvant at 30 μM).
On to `Nc1nc(-c2cccc(NC(=O)Nc3cccc(-c4c[nH]c(N)n4)c3)c2)c[nH]1` [Compound 5], for which the “activity in combination with AZM” value in series [1] is recorded as “significant activity”. In series [2] (value in brackets), the MIC was found to be 447 µg/mL. In addition, the “MIC against AB5075” value in series [2] was determined as 200. In series [3], the “Colistin MIC” value was 2 µg/mL. Besides, the “microsomal stability (in words)” value in series [5] was “steady concentration over 60 minutes”. The “plasma stability (in words)” value in series [6] was “steady concentration over 4 hours”. The “Clarithromycin (CLR) MIC” value in series [4] (adjuvant at 5 μM) is 4 µg/mL; in series [4] (adjuvant at 7.5 μM), 1 µg/mL; in series [4] (adjuvant at 10 μM), 0.5 µg/mL; in series [4] (adjuvant at 20 μM), 0.0625 µg/mL; in series [4] (adjuvant at 30 μM) it was 0.03125 µg/mL. The “Fold Reduction of CLR MIC” value in series [4] (adjuvant at 5 μM) was determined as 8 fold; in series [4] (adjuvant at 7.5 μM) it was 32 fold; in series [4] (adjuvant at 10 μM), 64 fold; in series [4] (adjuvant at 20 μM) it was 512 fold; in series [4] (adjuvant at 30 μM), 1024 fold.
`Nc1nc(-c2cc(NC(=O)Nc3ccc(F)c(-c4c[nH]c(N)n4)c3)ccc2F)c[nH]1` [Compound 9b]: in series [2], the MIC was over 200 µM. In addition, the “Clarithromycin (CLR) MIC” value in series [4] (adjuvant at 5 μM) was 2 µg/mL; in series [4] (adjuvant at 7.5 μM), 1 µg/mL; in series [4] (adjuvant at 10 μM) it was 0.5 µg/mL; in series [4] (adjuvant at 20 μM), 0.25 µg/mL; in series [4] (adjuvant at 30 μM), 0.125 µg/mL. The “Fold Reduction of CLR MIC” value is given as 16 fold in series [4] (adjuvant at 5 μM); 32 fold in series [4] (adjuvant at 7.5 μM); 64 fold in series [4] (adjuvant at 10 μM); 128 fold in series [4] (adjuvant at 20 μM); 256 fold in series [4] (adjuvant at 30 μM).
Consider `Nc1nc(-c2ccc(NC(=O)Nc3ccc(-c4c[nH]c(N)n4)c(C(F)(F)F)c3)cc2C(F)(F)F)c[nH]1` [Compound 9c], for which the minimal inhibitory concentration (MIC) in series [2] was over 200 µM. Moreover, the “CLR potentiation activity (in words)” value in series [4] is “abolished all activity”. Also, in series [4] (adjuvant at 30 μM), the “Clarithromycin (CLR) MIC” value came out at 2 µg/mL and the “Fold Reduction of CLR MIC” value was 16 fold.
Taken in the same sequence, the figures for `COc1cc(-c2c[nH]c(N)n2)ccc1NC(=O)Nc1ccc(-c2c[nH]c(N)n2)cc1OC` [Compound 9d] were 200 µM, “abolished all activity”, 8 µg/mL and 4 fold.
As to `Nc1nc(-c2ccc(F)c(NC(=O)Nc3cc(-c4c[nH]c(N)n4)ccc3F)c2)c[nH]1` [Compound 9e], the minimal inhibitory concentration (MIC) in series [2] is over 200 µM. In addition, in series [4] (adjuvant at 30 μM), the “Clarithromycin (CLR) MIC” value amounted to 32 µg/mL and the “Fold Reduction of CLR MIC” value was found to be 1 fold.
Regarding `Nc1nc(-c2cccc(NC(=O)Nc3cccc(-c4c[nH]c(N)n4)c3F)c2F)c[nH]1` [Compound 9f], in series [2], the minimal inhibitory concentration (MIC) was over 200 µM. The “Clarithromycin (CLR) MIC” value is 2 µg/mL in series [4] (adjuvant at 7.5 μM), 1 µg/mL in series [4] (adjuvant at 10 μM), 0.5 µg/mL in series [4] (adjuvant at 20 μM) and 0.25 µg/mL in series [4] (adjuvant at 30 μM). In addition, the “Fold Reduction of CLR MIC” value in series [4] (adjuvant at 7.5 μM) was 16 fold; in series [4] (adjuvant at 10 μM), 32 fold; in series [4] (adjuvant at 20 μM), 64 fold; in series [4] (adjuvant at 30 μM), 128 fold.
With `Nc1nc(-c2ccc(NC(=O)Nc3ccc(F)c(-c4c[nH]c(N)n4)c3)cc2F)c[nH]1` [Compound 9h], in series [2], the MIC is over 200 µM. Also, the “Clarithromycin (CLR) MIC” value is 4 µg/mL in series [4] (adjuvant at 20 μM) and 0.5 µg/mL in series [4] (adjuvant at 30 μM). Also, the “Fold Reduction of CLR MIC” value was determined as 8 fold in series [4] (adjuvant at 20 μM) and 64 fold in series [4] (adjuvant at 30 μM).
Consider `Nc1nc(-c2ccc(F)c(NC(=O)Nc3ccc(-c4c[nH]c(N)n4)c(F)c3)c2)c[nH]1` [Compound 9i], for which the minimal inhibitory concentration (MIC) in series [2] was over 200 µM. For the same molecule, in series [4] (adjuvant at 30 μM), the “Clarithromycin (CLR) MIC” value came to 8 µg/mL and the “Fold Reduction of CLR MIC” value was 4 fold.
`Nc1nc(-c2cc(F)cc(NC(=O)Nc3ccc(-c4c[nH]c(N)n4)c(F)c3)c2)c[nH]1` [Compound 9j]: the MIC in series [2] was over 200 µM. Further, the “Clarithromycin (CLR) MIC” value in series [4] (adjuvant at 5 μM) amounted to 1 µg/mL; in series [4] (adjuvant at 7.5 μM), 0.25 µg/mL; in series [4] (adjuvant at 10 μM), 0.125 µg/mL; in series [4] (adjuvant at 20 μM), 0.125 µg/mL; in series [4] (adjuvant at 30 μM), 0.0625 µg/mL. Besides, the “Fold Reduction of CLR MIC” value in series [4] (adjuvant at 5 μM) turned out to be 32 fold; in series [4] (adjuvant at 7.5 μM) it was 128 fold; in series [4] (adjuvant at 10 μM), 256 fold; in series [4] (adjuvant at 20 μM), 256 fold; in series [4] (adjuvant at 30 μM), 512 fold.
Regarding `Nc1nc(-c2cccc(NC(=O)Nc3cc(F)cc(-c4c[nH]c(N)n4)c3)c2)c[nH]1` [Compound 9l], the MIC in series [2] was over 200 µM. Further, the “Clarithromycin (CLR) MIC” value in series [4] (adjuvant at 7.5 μM) worked out at 1 µg/mL; in series [4] (adjuvant at 10 μM), 0.5 µg/mL; in series [4] (adjuvant at 20 μM) it was 0.0625 µg/mL; in series [4] (adjuvant at 30 μM), 0.0625 µg/mL. Moreover, the “Fold Reduction of CLR MIC” value is 32 fold in series [4] (adjuvant at 7.5 μM), 64 fold in series [4] (adjuvant at 10 μM), 512 fold in series [4] (adjuvant at 20 μM) and 512 fold in series [4] (adjuvant at 30 μM).
`Nc1nc(-c2ccc(NC(=O)Nc3ccc(-c4c[nH]c(N)n4)c(F)c3)cc2)c[nH]1` [Compound 9m]: in series [2], the minimal inhibitory concentration (MIC) is over 200 µM. For the same molecule, the “Clarithromycin (CLR) MIC” value worked out at 2 µg/mL in series [4] (adjuvant at 7.5 μM), 1 µg/mL in series [4] (adjuvant at 10 μM), 0.5 µg/mL in series [4] (adjuvant at 20 μM) and 0.0625 µg/mL in series [4] (adjuvant at 30 μM). Also, the “Fold Reduction of CLR MIC” value in series [4] (adjuvant at 7.5 μM) amounted to 16 fold; in series [4] (adjuvant at 10 μM), 32 fold; in series [4] (adjuvant at 20 μM), 64 fold; in series [4] (adjuvant at 30 μM) it was 512 fold.
Regarding `Nc1nc(-c2ccc(NC(=O)Nc3ccc(-c4c[nH]c(N)n4)cc3F)c(F)c2)c[nH]1` [Compound 14a], the MIC in series [2] was over 200 µM. In series [4] (adjuvant at 30 μM), the “Clarithromycin (CLR) MIC” value is 4 µg/mL and the “Fold Reduction of CLR MIC” value is recorded as 8 fold.
`Nc1nc(-c2ccc(NC(=O)Nc3ccc(-c4c[nH]c(N)n4)c(Cl)c3)cc2Cl)c[nH]1` [Compound 14b] showed a minimal inhibitory concentration (MIC) in series [2] of over 200 µM. For the same molecule, the “CLR potentiation activity (in words)” value in series [4] is recorded as “abolished all activity”. Moreover, in series [4] (adjuvant at 30 μM), the “Clarithromycin (CLR) MIC” value is 32 µg/mL and the “Fold Reduction of CLR MIC” value was 1 fold.
The matching figures for `Cc1cc(-c2c[nH]c(N)n2)ccc1NC(=O)Nc1ccc(-c2c[nH]c(N)n2)cc1C` [Compound 14c]: over 200 µM, “abolished all activity”, 32 µg/mL and 1 fold.
